From patent US7547729B2, “1,3-diphenylprop-2-en-1-one derivative compounds, preparation method thereof and uses of same” (Genfit, priority 2004, dated 2009)

Experiments:
PPARδ = biological target: T1, PPARδ (Homo sapiens, UniProt Q03181); assay: PPARδ/Gal4 transactivation system in COS-7 cells; assay type: cell-based; conditions: 24 hours
T1 construct: expressed in transfected cells; host or cells: COS-7 cells
T1 sequence (Q03181 211-439 limits assumed): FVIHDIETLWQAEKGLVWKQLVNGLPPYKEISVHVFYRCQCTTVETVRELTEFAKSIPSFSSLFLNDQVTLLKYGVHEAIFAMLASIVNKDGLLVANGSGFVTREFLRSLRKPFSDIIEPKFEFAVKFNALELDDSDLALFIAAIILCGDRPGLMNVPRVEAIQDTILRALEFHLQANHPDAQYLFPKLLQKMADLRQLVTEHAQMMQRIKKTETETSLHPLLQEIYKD
Description: (§1) COS-7 cells were incubated with different concentrations of the inventive compounds for 24 hours. The results are expressed as the induction factor (ratio of luminescent signal obtained with the compound and that observed without the compound) after the different treatments.
(§2) PPAR activation was tested in vitro in RK13 epitheloid or COS-7 cell lines by measuring the transcriptional activity of chimeras composed of the DNA binding domain of the yeast gal4 transcription factor and the ligand binding domain of the different PPARs. These latter results were then confirmed in cell lines according to the following protocols:
(§3) RK13 cells were from ECACC (Porton Down, UK), COS-7 cells were from the ATCC (American Type Culture Collection) and were grown in DMEM medium supplemented with 10% (VN) fetal calf serum, 100 U/ml penicillin (Gibco, Paisley, UK) and 2 mM L-glutamine (Gibco, Paisley, UK). The culture medium was changed every two days. Cells were kept at 37° C. in a humidified 95% air/5% CO2 atmosphere.
(§4) The plasmids pG5TkpGL3, pRL-CMV, pGal4-hPPARα, pGal4-hPPARγ, pGal4-hPPARδ and pGal4-φ have been described by Raspe, Madsen et al. (1999). The pGal4-mPPARα, pGal4-hPPARγ and pGal4-hPPARδ constructs were obtained by cloning into the pGal4-φ vector of PCR-amplified DNA fragments corresponding to the DEF domains of the human PPARα, PPARγ and PPARδ nuclear receptors.
(§5) RK13 cells were seeded in 24-well culture dishes at 5×10^4 cells/well, COS-7 cells in 96-well culture dishes at 5×10^4 cells/well and transfected for 2 hours with the reporter plasmid pG5TkpGL3 (50 ng/well), the expression vectors pGal4-φ, pGal4-mPPARα, pGal4-hPPARα, pGal4-hPPARγ, pGal4-hPPARδ (100 ng/well) and the transfection efficiency control vector pRL-CMV (1 ng/well) according to the previously described protocol (Raspe, Madsen et al. 1999), then incubated for 36 hours with the test compounds. At the end of the experiment, the cells were lysed (Gibco, Paisley, UK) and luciferase activity was determined with a Dual-Luciferase™ Reporter Assay System kit (Promega, Madison, Wis., USA) for RK13 cells and Steady Glow Luciferase (Promega) for COS-7 cells according to the supplier's instructions as previously described. The protein content of the cell extracts was then measured with the Bio-Rad Protein Assay (Bio-Rad, Munich, Germany) as directed by the supplier.

PPARα = biological target: T2, PPARα (Homo sapiens, UniProt Q07869); assay: PPARα/Gal4 transactivation system in COS-7 cells; assay type: cell-based; conditions: 24 hours
T2 construct: expressed in transfected cells; host or cells: COS-7 cells
T2 sequence (Q07869 239-466 limits assumed): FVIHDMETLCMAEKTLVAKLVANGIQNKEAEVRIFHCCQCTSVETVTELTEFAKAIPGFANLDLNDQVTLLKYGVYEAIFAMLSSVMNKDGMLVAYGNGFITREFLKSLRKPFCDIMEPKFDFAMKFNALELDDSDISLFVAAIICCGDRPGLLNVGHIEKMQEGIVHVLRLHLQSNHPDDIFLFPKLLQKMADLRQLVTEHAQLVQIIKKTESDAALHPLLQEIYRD
Description: as §1, §2, §3, §4, §5

LDL = assay: Protection against LDL oxidation by copper (conjugated diene formation); assay type: biochemical; conditions: 10^−4M; for diene oxidation rate: FIG. 7b, absence of compounds 2.5
Description: Unless otherwise indicated, the reagents were from Sigma (St Quentin, France). LDL were prepared according to the method described by Lebeau et al. (Lebeau, Furman et al. 2000).
The solutions of test compounds were prepared at 10^−2 M concentration in bicarbonate buffer (pH 9) and diluted in PBS to obtain final concentrations ranging from 0.1 to 100 μM
Prior to oxidation, EDTA was removed from the LDL preparation by dialysis. Oxidation then took place at 30° C. by adding 100 μl of 16.6 μM CuSO4 solution to 160 μL of LDL (125 μg protein/ml) and 20 μl of a test compound solution. The formation of dienes, the species under observation, was followed by measuring optical density at 232 nm in the samples treated with the compounds in the presence or absence of copper. Optical density at 232 nm was measured every 10 minutes for 8 hours in a thermostated spectrophotometer (Tecan Ultra 380). The analyses were performed in triplicate. The compounds were considered to have antioxidant activity when they induced a longer lag phase and reduced the rate of oxidation and the amount of dienes formed in comparison with the control sample.

[1] = system: Apo E2/E2 transgenic mice; assay: Effects on triglyceride and cholesterol metabolism in Apo E2/E2 transgenic mice; assay type: in vivo; conditions: gavage, 50 mg/kg/day, seven days
Description: FIGS. 19a, 19b, 19c, 19d, 20a, 20b, 20c and 20d illustrate the effects of treatment with compound 2 (Cpd2), compound 13 (Cpd13), compound 33 (Cpd33) and compound 39 (Cpd39) on triglyceride and cholesterol metabolism in Apo E2/E2 transgenic mice treated by gavage with the compound at a dose of 50 mg/kg/day, for seven days.
Apo E2/E2 transgenic mice were housed in a 12-hour light/dark cycle at a constant temperature of 20±3° C. After a 1-week acclimatization period, the mice were weighed and divided into groups of 6 animals selected such that the distribution of body weight was uniform. The test compounds were suspended in carboxymethylcellulose and administered by gastric lavage at the indicated doses, once a day for 7 days. Animals had access to food and water ad libitum. At the end of the experiments, animals were weighed and sacrificed under anesthesia. Blood was collected on EDTA. Plasma was isolated by centrifugation at 3000 rpm for 20 minutes. Liver samples were removed and stored frozen in liquid nitrogen for later analysis.
Lipid concentrations in plasma (total cholesterol and free cholesterol, triglycerides and phospholipids) were determined by a colorimetric assay (Boehringer, Mannheim, Germany) according to the supplier's instructions. Plasma concentrations of apolipoproteins AI, AII and CIII were determined as previously described (Raspe et al. 1999, Asset G et al., Lipids, 1999).

PPARγ = biological target: T3, PPARγ (Homo sapiens, UniProt P37231); assay: PPARγ/Gal4 transactivation system in COS-7 cells; assay type: cell-based; conditions: 24 hours
T3 construct: expressed in transfected cells; host or cells: COS-7 cells
T3 sequence (P37231 238-503 limits assumed): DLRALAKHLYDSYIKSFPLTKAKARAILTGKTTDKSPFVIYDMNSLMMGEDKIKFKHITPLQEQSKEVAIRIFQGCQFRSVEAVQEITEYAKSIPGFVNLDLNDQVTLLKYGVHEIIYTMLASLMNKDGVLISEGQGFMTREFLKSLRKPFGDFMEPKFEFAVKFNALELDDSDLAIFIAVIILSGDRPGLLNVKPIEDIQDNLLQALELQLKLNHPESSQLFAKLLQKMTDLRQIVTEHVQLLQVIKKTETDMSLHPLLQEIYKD
Description: as §1, §2, §3, §4, §5

[2] = FIG. 7a, absence of compounds 67.3 minutes

**Q.** What does the source list for `CSc1c(C)cc(C(=O)/C=C/c2cc(C)c(OC(C)(C)C(=O)O)c(C)c2)cc1C` [compound 13, 1-(4-Methylthio-3,5-dimethylphenyl)-3-(4-carboxydimethylmethyloxy-3,5-dimethylphenyl)prop-2-en-1-one]?
**A.** Induction factor (PPARδ; 0.01 μM): 1.50; Induction factor (PPARδ; 0.03 μM): 2.17; Induction factor (PPARδ; 0.1 μM): 3.37; Induction factor (PPARδ; 0.3 μM): 14.00; Induction factor (PPARδ; 1 μM): 28.75; Induction factor (PPARδ; 3 μM): 27.72; Induction factor (PPARα; 0.001 μM): 1.10; Induction factor (PPARα; 0.003 μM): 1.58; Induction factor (PPARα; 0.01 μM): 4.99; Induction factor (PPARα; 0.03 μM): 10.89; Induction factor (PPARα; 0.1 μM): 16.87; Induction factor (PPARα; 0.3 μM): 15.95; Induction factor (PPARα; 1 μM): 17.05; lag phase (LDL; [2]): 219 min; diene oxidation rate (LDL): 1.5 nmol/min/mg of LDL; plasma cholesterol [1]: decrease; plasma triglycerides [1]: decrease; Induction factor (PPARγ; 0.001 μM): 0.99; Induction factor (PPARγ; 0.003 μM): 1.15; Induction factor (PPARγ; 0.01 μM): 1.67; Induction factor (PPARγ; 0.03 μM): 2.18; Induction factor (PPARγ; 0.1 μM): 3.01; Induction factor (PPARγ; 0.3 μM): 3.66; Induction factor (PPARγ; 1 μM): 4.03; Induction factor (PPARγ; 3 μM): 3.89

**Q.** Which Induction factor (PPARα; 0.0003 μM) does the source give for `Cc1cc(/C=C/C(=O)c2ccc(OCCSC3CCCCC3)cc2)cc(C)c1OC(C)(C)C(=O)O` [compound 23, 1-(4-Cyclohexylthioethyloxyphenyl)-3-(4-carboxydimethylmethyloxy-3,5-dimethylphenyl)prop-2-en-1-one] here?
**A.** 0.92

**Q.** And the Induction factor (PPARα; 0.001 μM)?
**A.** 1.11

**Q.** What about the Induction factor (PPARα; 0.003 μM) of the same compound?
**A.** 1.33

**Q.** What about the Induction factor (PPARα; 0.01 μM) of the same compound?
**A.** 2.35

**Q.** And the Induction factor (PPARα; 0.03 μM)?
**A.** 4.22

**Q.** What about the Induction factor (PPARα; 0.1 μM) of the same compound?
**A.** 7.16

**Q.** And the Induction factor (PPARα; 0.3 μM)?
**A.** 8.08

**Q.** And the Induction factor (PPARα; 1 μM)?
**A.** 8.35

**Q.** And the Induction factor (PPARα; 3 μM)?
**A.** 7.15

**Q.** And the lag phase (LDL; FIG. 4a, copper alone 61 minutes)?
**A.** 96.4 min

**Q.** And the diene formation rate (LDL; FIG. 4b, absence of compounds 1.9)?
**A.** 1.3 nmol/min/mg of LDL

**Q.** And the “total amount of dienes formed” value (LDL; FIG. 4c, absence of compound 370.9)?
**A.** 340.3 nmol/mg of LDL

**Q.** What about the Induction factor (PPARγ; 0.0003 μM) of the same compound?
**A.** 1.02

**Q.** And the Induction factor (PPARγ; 0.001 μM)?
**A.** 1.43

**Q.** What about the Induction factor (PPARγ; 0.003 μM) of the same compound?
**A.** 2.86

**Q.** And the Induction factor (PPARγ; 0.01 μM)?
**A.** 3.48

**Q.** What about the Induction factor (PPARγ; 0.03 μM) of the same compound?
**A.** 5.04

**Q.** What about the Induction factor (PPARγ; 0.1 μM) of the same compound?
**A.** 6.17

**Q.** What about the Induction factor (PPARγ; 0.3 μM) of the same compound?
**A.** 6.84

**Q.** And the Induction factor (PPARγ; 1 μM)?
**A.** 7.24

**Q.** What about the Induction factor (PPARγ; 3 μM) of the same compound?
**A.** 6.98

**Q.** Which Induction factor (PPARδ; 0.001 μM) does the source give for `Cc1cc(/C=C/C(=O)c2ccc(Oc3ccccc3)cc2)cc(C)c1OC(C)(C)C(=O)O` [compound 33, 1-(4-Phenyloxyphenyl)-3-(4-carboxydimethylmethyloxy-3,5-dimethylphenyl)prop-2-en-1-one] here?
**A.** 1.17

**Q.** And the Induction factor (PPARδ; 0.003 μM)?
**A.** 1.23

**Q.** And the Induction factor (PPARδ; 0.01 μM)?
**A.** 1.87

**Q.** And the Induction factor (PPARδ; 0.03 μM)?
**A.** 5.29

**Q.** And the Induction factor (PPARδ; 0.1 μM)?
**A.** 15.01

**Q.** What about the Induction factor (PPARδ; 0.3 μM) of the same compound?
**A.** 33.89

**Q.** And the Induction factor (PPARδ; 1 μM)?
**A.** 74.09

**Q.** And the Induction factor (PPARδ; 3 μM)?
**A.** 90.84

**Q.** What about the Induction factor (PPARα; 0.001 μM) of the same compound?
**A.** 5.23

**Q.** What about the Induction factor (PPARα; 0.003 μM) of the same compound?
**A.** 15.18

**Q.** What about the Induction factor (PPARα; 0.01 μM) of the same compound?
**A.** 19.53

**Q.** And the Induction factor (PPARα; 0.03 μM)?
**A.** 19.71

**Q.** What about the Induction factor (PPARα; 0.1 μM) of the same compound?
**A.** 19.17

**Q.** And the Induction factor (PPARα; 0.3 μM)?
**A.** 20.82

**Q.** And the Induction factor (PPARα; 1 μM)?
**A.** 19.97

**Q.** What about the lag phase (LDL; [2]) of the same compound?
**A.** 148 min

**Q.** And the diene oxidation rate (LDL)?
**A.** 1.4 nmol/min/mg of LDL

**Q.** And the “total amount of dienes formed” value (LDL; FIG. 7c, absence of compounds 432.5)?
**A.** 399 nmol/mg of LDL

**Q.** And the plasma cholesterol [1]?
**A.** decrease

**Q.** And the plasma triglycerides [1]?
**A.** decrease

**Q.** And the Induction factor (PPARγ; 0.001 μM)?
**A.** 1.18

**Q.** What about the Induction factor (PPARγ; 0.003 μM) of the same compound?
**A.** 1.61

**Q.** What about the Induction factor (PPARγ; 0.01 μM) of the same compound?
**A.** 2.65

**Q.** And the Induction factor (PPARγ; 0.03 μM)?
**A.** 3.54

**Q.** And the Induction factor (PPARγ; 0.1 μM)?
**A.** 4.88

**Q.** What about the Induction factor (PPARγ; 0.3 μM) of the same compound?
**A.** 5.95

**Q.** What about the Induction factor (PPARγ; 1 μM) of the same compound?
**A.** 6.93

**Q.** And the Induction factor (PPARγ; 3 μM)?
**A.** 7.99

**Q.** And the Induction factor (PPARγ; 10 μM)?
**A.** 6.30
